One assay addresses Histone deacetylase 1 (Homo sapiens, UniProt Q13547). Description: Inhibition of C-terminal FLAG His tagged full length human recombinant HDAC1 (1 to 482 residues) expressed in baculovirus infected sf21 cells using RHKKAc as substrate in presence of ATP.
In assay [1] the target is T1, Protein deacetylase HDAC6 (Homo sapiens, UniProt Q9UBN7).
T1 sequence (Q9UBN7 whole entry): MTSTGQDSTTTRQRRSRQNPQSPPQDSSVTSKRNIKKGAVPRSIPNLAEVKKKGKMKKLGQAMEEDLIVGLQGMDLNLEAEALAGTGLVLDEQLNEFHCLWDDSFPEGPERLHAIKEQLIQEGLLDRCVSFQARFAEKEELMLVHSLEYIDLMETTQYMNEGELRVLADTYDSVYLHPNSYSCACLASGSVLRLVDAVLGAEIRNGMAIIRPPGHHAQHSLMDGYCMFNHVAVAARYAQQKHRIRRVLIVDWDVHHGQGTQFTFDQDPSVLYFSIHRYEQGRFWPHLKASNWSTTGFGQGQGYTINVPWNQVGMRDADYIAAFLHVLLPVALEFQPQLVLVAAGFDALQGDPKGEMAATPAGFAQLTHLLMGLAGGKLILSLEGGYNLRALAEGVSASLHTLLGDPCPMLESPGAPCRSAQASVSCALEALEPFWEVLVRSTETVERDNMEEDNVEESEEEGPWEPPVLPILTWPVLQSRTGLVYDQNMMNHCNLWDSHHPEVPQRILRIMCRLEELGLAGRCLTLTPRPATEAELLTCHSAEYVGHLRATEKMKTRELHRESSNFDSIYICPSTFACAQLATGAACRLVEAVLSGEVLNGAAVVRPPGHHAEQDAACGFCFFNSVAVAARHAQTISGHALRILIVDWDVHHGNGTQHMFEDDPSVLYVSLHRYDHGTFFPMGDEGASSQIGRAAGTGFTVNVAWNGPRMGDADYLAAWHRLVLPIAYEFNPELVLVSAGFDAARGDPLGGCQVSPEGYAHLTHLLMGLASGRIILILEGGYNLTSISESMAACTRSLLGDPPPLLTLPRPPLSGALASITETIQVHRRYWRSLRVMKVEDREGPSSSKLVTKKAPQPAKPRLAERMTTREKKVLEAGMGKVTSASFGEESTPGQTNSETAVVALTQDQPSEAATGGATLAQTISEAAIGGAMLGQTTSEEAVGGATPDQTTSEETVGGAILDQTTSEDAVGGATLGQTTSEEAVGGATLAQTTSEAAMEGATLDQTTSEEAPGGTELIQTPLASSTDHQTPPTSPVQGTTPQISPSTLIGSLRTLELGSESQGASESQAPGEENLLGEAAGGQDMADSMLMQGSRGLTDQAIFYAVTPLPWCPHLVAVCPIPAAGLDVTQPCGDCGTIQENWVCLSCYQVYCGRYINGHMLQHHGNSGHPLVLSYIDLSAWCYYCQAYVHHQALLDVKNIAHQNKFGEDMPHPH
Description: Inhibition of N-terminal GST tagged human HDAC6 (1 to 1215 residues) expressed in baculovirus infected insect cells using RHKKAc as substrate in presence of ATP.

In assay [2] the target is T2, Tyrosine-protein kinase JAK2 (Homo sapiens, UniProt O60674). Description: Inhibition of human JAK2 using poly[Glu:Tyr] as substrate in presence of [gamma-33P]-ATP.
T2 sequence (O60674 whole entry, the tested form may be a part): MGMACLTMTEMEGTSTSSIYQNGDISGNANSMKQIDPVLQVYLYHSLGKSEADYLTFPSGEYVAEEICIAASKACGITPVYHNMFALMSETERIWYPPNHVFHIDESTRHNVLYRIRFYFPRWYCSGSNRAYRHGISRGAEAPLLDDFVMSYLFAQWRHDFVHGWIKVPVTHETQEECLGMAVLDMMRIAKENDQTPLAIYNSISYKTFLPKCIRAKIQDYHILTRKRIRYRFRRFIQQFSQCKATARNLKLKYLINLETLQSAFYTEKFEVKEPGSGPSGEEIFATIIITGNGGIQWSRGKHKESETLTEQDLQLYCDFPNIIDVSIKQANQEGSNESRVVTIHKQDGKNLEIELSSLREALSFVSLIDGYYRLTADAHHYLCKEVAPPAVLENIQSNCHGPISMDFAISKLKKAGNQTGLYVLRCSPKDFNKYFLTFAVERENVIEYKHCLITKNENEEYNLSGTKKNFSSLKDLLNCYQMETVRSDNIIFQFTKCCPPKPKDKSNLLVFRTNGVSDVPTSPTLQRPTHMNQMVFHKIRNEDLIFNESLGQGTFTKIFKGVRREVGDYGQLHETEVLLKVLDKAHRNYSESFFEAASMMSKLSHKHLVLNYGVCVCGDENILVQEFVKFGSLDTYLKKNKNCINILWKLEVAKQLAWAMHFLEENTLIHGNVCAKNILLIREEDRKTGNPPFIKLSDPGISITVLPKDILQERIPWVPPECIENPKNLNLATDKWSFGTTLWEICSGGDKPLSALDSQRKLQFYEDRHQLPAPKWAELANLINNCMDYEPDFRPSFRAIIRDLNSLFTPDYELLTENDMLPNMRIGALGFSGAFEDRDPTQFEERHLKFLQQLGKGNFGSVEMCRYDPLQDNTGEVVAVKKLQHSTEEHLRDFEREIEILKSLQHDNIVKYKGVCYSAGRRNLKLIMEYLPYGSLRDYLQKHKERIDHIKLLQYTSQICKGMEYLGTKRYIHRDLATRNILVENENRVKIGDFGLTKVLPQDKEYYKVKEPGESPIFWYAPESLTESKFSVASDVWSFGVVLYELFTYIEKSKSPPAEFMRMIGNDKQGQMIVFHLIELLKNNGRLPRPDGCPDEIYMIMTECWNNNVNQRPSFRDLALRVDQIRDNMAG
The target in assay [3] is T2, Tyrosine-protein kinase JAK2. Nature of the assay: Binding affinity to N-terminal His tagged human recombinant JAK2 (1014 to 1132 residues) expressed in Escherichia coli after 60 to 90 mins by LC/MS analysis. The following applies: read-out: Kd(app).
A further assay deals with MDA-MB-231. Description: cells. The format is functional, cell-based. The following applies: Homo sapiens, MDA-MB-231, 72 h.
For another assay, the system named is MCF7. Description: cells. The format is functional, cell-based. The following applies: Homo sapiens, MCF7, 72 h.
The test system of the next assay is HCT-116. Nature of the assay: Antiproliferative activity against human HCT116 cells after 72 hrs by MTT assay. The format is functional, cell-based. The following applies: HCT-116, 72 h. Background: Tetrazolium dyes change colour on reduction, which living cells bring about.
For another assay, the system named is PC-3. Description: cells. The format is functional, cell-based. Conditions: Homo sapiens, PC-3, 72 h.
For the next assay, the system named is HL-60. Description: Antiproliferative activity against human HL60 cells. It is filed as functional, cell-based.
The test system of another assay is HEL 92.1.7. Description: cells. It is filed as functional, cell-based. Conditions: Homo sapiens, HEL 92.1.7, 36 h.
The next assay has as its system Jurkat. Nature of the assay: cells. It is filed as functional, cell-based. Conditions: Homo sapiens.
Another assay concerns KMS-12-BM. Description: cells. It is filed as functional, cell-based. The following applies: Homo sapiens, 48 h.
A further assay has as its system MOLM-14. Nature of the assay: cells. The format is functional, cell-based. Conditions: Homo sapiens, MOLM-14, 48 h.
Assay [4] is described as follows: cells. The format is functional, cell-based. Conditions: Homo sapiens, NKYS, 48 h.
Assay [5] in a line: cells. It is filed as ADME, cell-based. The following applies: Homo sapiens, AC10, 24 h.

pIC50, pKd: −log10 of the molar value.

Sequence of Histone deacetylase 1 (Q13547 whole entry, the tested form may be a part): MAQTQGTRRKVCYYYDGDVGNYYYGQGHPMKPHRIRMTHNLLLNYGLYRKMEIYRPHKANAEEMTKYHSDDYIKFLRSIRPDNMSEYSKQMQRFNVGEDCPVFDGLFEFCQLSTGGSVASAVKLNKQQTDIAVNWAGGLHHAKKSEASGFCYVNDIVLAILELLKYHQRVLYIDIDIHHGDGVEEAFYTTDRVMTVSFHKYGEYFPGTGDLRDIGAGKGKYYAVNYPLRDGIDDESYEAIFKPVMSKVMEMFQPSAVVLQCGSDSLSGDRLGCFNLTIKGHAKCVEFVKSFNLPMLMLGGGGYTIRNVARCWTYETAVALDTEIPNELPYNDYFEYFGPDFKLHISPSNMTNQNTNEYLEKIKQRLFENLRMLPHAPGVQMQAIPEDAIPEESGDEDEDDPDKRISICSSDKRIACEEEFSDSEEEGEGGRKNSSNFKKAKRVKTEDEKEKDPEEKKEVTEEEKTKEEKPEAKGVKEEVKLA

Broadly, the pIC50 is the IC50 on a negative log10 scale, so that one unit is a factor of ten. As usually defined, the pKd is the negative decadic logarithm of the Kd, by convention in mol/L. Take `O=C(CCCCCCC(=O)Nc1ccc(CCCn2cc(-c3ncnc4[nH]ccc34)cn2)cc1)NO`: the pIC50 on Histone deacetylase 1 is 6.58; in assay [1] it was 9.05; in [2], 6.06; in the assay on MDA-MB-231, 4.15; in the assay on MCF7 it was < 4.30; with HCT-116, 4.64. Moreover, the pIC50 in the assay with PC-3 is < 4.30. Also, the pKd in assay [3] was 5.70.

For `O=C(CCCCn1cc(-c2ncnc3[nH]ccc23)cn1)NO`, the pIC50 on Histone deacetylase 1 is 6.07; in [1], 8.22; with MDA-MB-231 it was 4.76; in the assay with MCF7, 4.89; with HCT-116 it was 4.34; with PC-3, < 4.00.

Take `CN1CCc2c(c3ccccc3n2Cc2ccc(C(=O)NO)cc2)C1` [TUBASTATIN A]: the pIC50 in the assay on MDA-MB-231 is 4.98; with MCF7 it was 5.43; in the assay with HCT-116, 5.70; with PC-3, 5.07; in the assay with HL-60 it was < 5.40; in the assay with HEL 92.1.7 it was < 5.40. The pIC50 with Jurkat is < 5.40.

In the case of `O=C(CCCCCn1cc(-c2ncnc3[nH]ccc23)cn1)NO`, the negative logarithm of the IC50 (pIC50) is 6.86 on Histone deacetylase 1; 8.54 in assay [1]; 5.09 in the assay on MCF7; 5.05 in the assay on HCT-116; 4.73 with PC-3.

As for `O=C(CCCCCCC(=O)Nc1ccccc1)NO` [VORINOSTAT], the pIC50 with HCT-116 was 5.73.

As to `O=C(CCCCCCC(=O)Nc1ccc(NCCCn2cc(-c3ncnc4[nH]ccc34)cn2)cc1)NO`, the pIC50 on Histone deacetylase 1 was 6.96; in assay [1], 9.85; in assay [2], 6.58; in the assay with MDA-MB-231 it was 4.59; in the assay with MCF7, 4.82; in the assay on HCT-116 it was 4.71. Moreover, the pIC50 is 4.62 in the assay with PC-3, < 5.00 with HL-60, < 5.40 with HEL 92.1.7 and 5.40 in the assay with Jurkat. In assay [3], the pKd is 6.00.

As for `O=C(CCCCCCCn1cc(-c2ncnc3[nH]ccc23)cn1)NO`, the negative logarithm of the IC50 (pIC50) was 7.44 at Histone deacetylase 1; 8.74 in [1]; 6.32 in assay [2]; 4.89 in the assay with MDA-MB-231; 4.91 in the assay with MCF7; 4.93 in the assay with HCT-116. The pIC50 in the assay on PC-3 is 4.89. For the same molecule, the pKd in assay [3] is 5.70.

In the case of `O=C(CCCn1cc(-c2ncnc3[nH]ccc23)cn1)NO`, the pIC50 is 6.22 in assay [1]; 5.45 in [2]; < 4.00 in the assay with MDA-MB-231; < 4.00 in the assay on MCF7; < 4.00 in the assay with HCT-116; < 4.00 in the assay with PC-3. In addition, the negative-log Kd (pKd) in assay [3] is 5.30.

Regarding `C1=N/C2=N/c3ccc(OCCN4CCCC4)c(c3)COC/C=C/COCc3cccc(c3)C(=C1)N2` [PACRITINIB], the pIC50 with KMS-12-BM is 6.12; in the assay with MOLM-14, 7.10; in “cells [4]”, 5.80; in “cells [5]”, 5.69.

For the molecule `O=C(CCCCCCCCCCn1cc(-c2ncnc3[nH]ccc23)cn1)NO`, the pIC50 is 5.45 on Histone deacetylase 1; 7.06 in [1]; 7.37 in [2]; 4.89 in the assay on MDA-MB-231; 4.88 with MCF7; 4.39 in the assay with HCT-116. This molecule showed a pIC50 with PC-3 of 4.27. For the same molecule, in assay [3], the pKd is > 6.00.

Take `O=C(CCCCCCC(=O)Nc1ccc(NC(=O)CCCn2cc(-c3ncnc4[nH]ccc34)cn2)cc1)NO`: the pIC50 in assay [1] is 6.26; in [2], 5.92; in the assay with MDA-MB-231 it was < 4.00; in the assay on MCF7, < 4.00; in the assay on HCT-116, < 4.00; in the assay with PC-3 it was < 4.00. In assay [3], the pKd was 5.70.

(Values after ChEMBL document CHEMBL4028864 (J Med Chem, 2017).)
